These results are taken from BindingDB's records for patent US10065950 (Japan Tobacco Inc, 2018).

The target in the assay is Gag-Pol polyprotein (Human immunodeficiency virus type 1 group M subtype B (isolate NY5), UniProt P12497). Put plainly: HIV Integrase Inhibitory Assay. To be noted: 25 °C.
As for `COC[C@@H]1Cn2cc(-c3nnc(Cc4ccc(F)cc4)s3)c(=O)c(O)c2C(=O)N1C(C)C` [US10065950, Example 3], the IC50 (commonly the concentration that gives 50% inhibition) is 8.5 nM.

For the compound `COC[C@H]1CN(C(C)C)C(=O)c2c(O)c(=O)c(-c3nnc(Cc4ccc(F)cc4)s3)cn21` [US10065950, Example 4], the 50% inhibitory concentration (IC50) was found to be 10 nM.

`CC(C)N1C[C@H](C)n2cc(-c3nnc(Cc4ccc(F)cc4)s3)c(=O)c(O)c2C1=O` [US10065950, Example 5] yielded an IC50 of 7.4 nM.

The compound `CC(C)N1C(=O)c2c(O)c(=O)c(-c3nnc(Cc4ccc(F)cc4)s3)cn2C[C@H]1C` [US10065950, Example 6] gave an IC50 of 5.6 nM.

`CCN1C(=O)c2c(O)c(=O)c(-c3nnc(Cc4ccc(F)cc4)s3)cn2C[C@H]1COC` [US10065950, Example 9]: inhibition was half-maximal at 9.1 nM (IC50).

`COC[C@@H]1Cn2cc(-c3nnc(Cc4ccc(F)cc4)s3)c(=O)c(O)c2C(=O)N1CC1CC1` [US10065950, Example 10] displayed an IC50 of 8.8 nM.

On to `CCOC[C@@H]1Cn2cc(-c3nnc(Cc4ccc(F)cc4)s3)c(=O)c(O)c2C(=O)N1CC1CC1` [US10065950, Example 11], for which inhibition was half-maximal at 6.4 nM (IC50).

With `CCOC[C@@H]1Cn2cc(-c3nnc(Cc4ccc(F)cc4)s3)c(=O)c(O)c2C(=O)N1C(C)C` [US10065950, Example 12], the IC50 turned out to be 7.3 nM.

In turn, `CCOC[C@@H]1Cn2cc(-c3nnc(Cc4ccc(F)cc4)s3)c(=O)c(O)c2C(=O)N1CC` [US10065950, Example 13] registered an IC50 of 6.4 nM.

As to `CCN1C(=O)c2c(O)c(=O)c(-c3nnc(Cc4ccc(F)cc4)s3)cn2[C@@H](C)[C@H]1COC` [US10065950, Example 14], inhibition was half-maximal at 10 nM (IC50).

The compound `COCCOC[C@H]1CN(C(C)C)C(=O)c2c(O)c(=O)c(-c3nnc(Cc4ccc(F)cc4)s3)cn21` [US10065950, Example 15] showed a half-inhibitory concentration (IC50) of 13 nM.

`COCCOC[C@H]1CN(C2CC2)C(=O)c2c(O)c(=O)c(-c3nnc(Cc4ccc(F)cc4)s3)cn21` [US10065950, Example 16] gave an IC50 of 20 nM.

For `CCN1C[C@](C)(C(=O)N2CCC2)n2cc(-c3ncc(Cc4ccc(F)cc4)s3)c(=O)c(O)c2C1=O` [US10065950, Example 17], the midpoint of inhibition, the IC50, lay at 7.9 nM. Compared with the last compound, the IC50 is about 2.5-fold lower.
